Results taken from patent US20250136722A1, “CYTOTOXICITY TARGETING CHIMERAS” (GLAXOSMITHKLINE INTELLECTUAL PROPERTY DEVELOPMENT LIMITED, priority 2021, published 2025).

target: T1, CHOK1 cells engineered to overexpress human CCR2 (Homo sapiens, UniProt P41597); experiment: Antibody dependent cellular cytotoxicity (ADCC) reporter assay (Example 199); assay type: cell-based; conditions: with anti-cotinine antibody SEQ ID NO: 11/12; CHOK1-human CCR2 target cells, Jurkat FcγRIIIa NFAT-luciferase reporter cells; 12-18 hours; read-out: ADCC Reporter Assay pEC50 (converted)
T1 construct: expressed in transfected cells; host or cells: CHOK1 cells
Description: An antibody dependent cellular cytoxicity reporter assay was conducted using the following four assay components: (i) ARM compound of Formula (I) targeting CCR2 (concentrations ranging from 1 pM to 10 μM) (ii) anti-cotinine antibody having a heavy chain sequence of SEQ ID NO: 11 and a light chain sequence of SEQ ID NO: 12 (rabbit variable region with human IgG1 Fc domain containing a DE mutation (S239D/1332E)) (concentrations ranging from 0.01 μg/mL to 200 μg/mL); (iii) target cells: CHOK1 cells engineered to overexpress either human CCR2 (typically 1000-20,000 cells per well) and (iv) reporter cells: Jurkat cells engineered to express FcγRIIIa with the reporter gene luciferase under the control of the NFAT promoter (typically 3000-75,000 cells per well). Reagents were combined in a final volume of 20 μL in a 384-well tissue culture treated plate. All four assay components were incubated together for about 12-18 hours. Thereafter, BioGlo Detection reagent (Promega) was added to the wells to lyse the cells and provide a substrate for the luciferase reporter protein. Luminescence signal was measured on a microplate reader and signal:background was calculated by dividing the signal of a test well by the signal obtained when no heterobivalent compound of Formula (I) was added. EC50 calculations were done using Graphpad Prism Software, specifically a nonlinear regression curve fit (Y=Bottom+(Top−Bottom)/(1+10^((Log EC50−X)*HillSlope))).
ARMs compounds of Formula (I) of the invention were tested for ADCC activity in the above assay in or more experimental runs and the results are shown in Table 3 below. Potency of the compounds of Formula (I) of the invention is reported as a pEC50 value. The pEC50 value is the negative log of the EC50 value, wherein the EC50 value is the half maximal effective concentration measured in molar (M). For compounds tested in more than one experimental run, the pEC50 value is reported as an average.

Row | SMILES | EC50 [nM]
1 | CC(C)N(C)[C@@H]1CC[C@H](N2CC[C@H](Nc3ncnc4ccc(C(F)(F)F)cc34)C2=O)[C@H](NC(=O)C2CCC(N3CCC(S(=O)(=O)NCCCCCCNC(=O)[C@H]4CC(=O)N(C)[C@@H]4c4cccnc4)CC3)CC2)C1 (single isomer, unassigned) [Example 148] | 3.16
2 | CC(C)N(C)[C@@H]1CC[C@H](N2CC[C@H](Nc3ncnc4ccc(C(F)(F)F)cc34)C2=O)[C@H](NC(=O)CCCNC(=O)CCCC(=O)NCCCOCCCNC(=O)[C@@H]2CC(=O)N(C)[C@H]2c2cccnc2)C1 [Example 21] | 0.469
3 | CC(C)N(C)[C@@H]1CC[C@H](N2CC[C@H](Nc3ncnc4ccc(C(F)(F)F)cc34)C2=O)[C@H](NC(=O)C23CCC(NC(=O)CCOCCOCCOCCNC(=O)[C@H]4CC(=O)N(C)[C@@H]4c4cccnc4)(CC2)CC3)C1 [Example 25] | 20
4 | CC(C)N(C)[C@@H]1CC[C@H](N2CC[C@H](Nc3ncnc4ccc(C(F)(F)F)cc34)C2=O)[C@H](NC(=O)C[C@H]2CC[C@H](NC(=O)CCOCCOCCOCCNC(=O)[C@H]3CC(=O)N(C)[C@@H]3c3cccnc3)CC2)C1 [Example 33] | 4.54
5 | CN1C(=O)C[C@H](C(=O)NCCOCCOCCOCCOCCOCCOCCOCCOCCC(=O)N[C@@H]2C[C@H](NC(C)(C)C)CC[C@@H]2N2CC[C@H](Nc3ncnc4ccc(C(F)(F)F)cc34)C2=O)[C@H]1c1cccnc1 [Example 36, (2S,3S)-N-(27-(((1R,2S,5R)-5-(tert-Butylamino)-2-((S)-2-oxo-3-((6-(trifluoromethyl)quinazolin-4-yl)amino)pyrrolidin-1-yl)cyclohexyl)amino)-27-oxo-3,6,9,12,15,18,21,24-octaoxaheptacosyl)-1-methyl-5-oxo-2-(pyridin-3-yl)pyrrolidine-3-carboxamide] | 3.98
6 | CC(C)N(C)[C@@H]1CC[C@H](N2CC[C@H](Nc3ncnc4ccc(C(F)(F)F)cc34)C2=O)[C@H](NC(=O)[C@H]2C[C@H](NC(=O)CCOCCNC(=O)CCOCCNC(=O)[C@@H]3CC(=O)N(C)[C@H]3c3cccnc3)C2)C1 [Example 45] | 3.98
7 | CN1C(=O)C[C@H](C(=O)NCCC(=O)NCCOCCOCCC(=O)N[C@H]2CC[C@@H](C(=O)N[C@@H]3C[C@H](NC(C)(C)C)CC[C@@H]3N3CC[C@H](Nc4ncnc5ccc(C(F)(F)F)cc45)C3=O)CC2)[C@H]1c1cccnc1 [Example 51] | 2
8 | CC(C)N(C)[C@@H]1CC[C@H](N2CC[C@H](Nc3ncnc4ccc(C(F)(F)F)cc34)C2=O)[C@H](NC(=O)CCCOC[C@H]2CC[C@H](COCCNC(=O)[C@H]3CC(=O)N(C)[C@@H]3c3cccnc3)CC2)C1 [Example 58] | 50.1
9 | CC(C)N(C)[C@@H]1CC[C@H](N2CC[C@H](Nc3ncnc4ccc(C(F)(F)F)cc34)C2=O)[C@H](NC(=O)CCCOCC23CCC(COCCNC(=O)[C@H]4CC(=O)N(C)[C@@H]4c4cccnc4)(CC2)CC3)C1 [Example 59] | 251
10 | CC(C)N(C)[C@@H]1CC[C@H](N2CC[C@H](Nc3ncnc4ccc(C(F)(F)F)cc34)C2=O)[C@H](NC2CCC(C(=O)NCCOCCOCCNC(=O)[C@H]3CC(=O)N(C)[C@@H]3c3cccnc3)CC2)C1 (some centres unmarked) [Example 68] | 10
11 | CC(C)N(C)[C@@H]1CC[C@H](N2CC[C@H](Nc3ncnc4ccc(C(F)(F)F)cc34)C2=O)[C@H](NC(=O)COCCNC(=O)CNC(=O)COCCOCCNC(=O)[C@H]2CC(=O)N(C)[C@@H]2c2cccnc2)C1 [Example 78] | 5.52
12 | CC(C)N(C)[C@@H]1CC[C@H](N2CC[C@H](Nc3ncnc4ccc(C(F)(F)F)cc34)C2=O)[C@H](NC(=O)[C@H]2CC[C@@H](NC(=O)CNC(=O)COCCOCCNC(=O)[C@H]3CC(=O)N(C)[C@@H]3c3cccnc3)CC2)C1 [Example 81] | 0.522
13 | CC(C)N(C)[C@@H]1CC[C@H](N2CC[C@H](Nc3ncnc4ccc(C(F)(F)F)cc34)C2=O)[C@H](NC(=O)[C@H]2CC[C@@H](NC(=O)COCCOCCNC(=O)CCNC(=O)[C@H]3CC(=O)N(C)[C@@H]3c3cccnc3)CC2)C1 [Example 82] | 0.479
14 | CC(C)N(C)[C@@H]1CC[C@H](N2CC[C@H](Nc3ncnc4ccc(C(F)(F)F)cc34)C2=O)[C@H](NC(=O)COCC(=O)N2CCN(C(=O)N3CCN(C(=O)COCCNC(=O)[C@H]4CC(=O)N(C)[C@@H]4c4cccnc4)CC3)CC2)C1 [Example 84] | 0.213
15 | CC(C)N(C)[C@@H]1CC[C@H](N2CC[C@H](Nc3ncnc4ccc(C(F)(F)F)cc34)C2=O)[C@H](NC(=O)CCc2ccc(C3CCN(C(=O)CCCCCNC(=O)[C@H]4CC(=O)N(C)[C@@H]4c4cccnc4)CC3)cc2)C1 [Example 86, (2S,3S)-N-(6-(4-(4-(3-(((1R,2S,5R)-5-(Isopropyl(methyl)amino)-2-((S)-2-oxo-3-((6-(trifluoromethyl)quinazolin-4-yl)amino)pyrrolidin-1-yl)cyclohexyl)amino)-3-oxopropyl)phenyl)piperidin-1-yl)-6-oxohexyl)-1-methyl-5-oxo-2-(pyridin-3-yl)pyrrolidine-3-carboxamide] | 7.94
16 | CC(C)N(C)[C@@H]1CC[C@H](N2CC[C@H](Nc3ncnc4ccc(C(F)(F)F)cc34)C2=O)[C@H](NC(=O)C2CCN(C3CCN(C(=O)CCCCCNC(=O)[C@H]4CC(=O)N(C)[C@@H]4c4cccnc4)CC3)CC2)C1 [Example 87] | 3.98
17 | CC(C)N(C)[C@@H]1CC[C@H](N2CC[C@H](Nc3ncnc4ccc(C(F)(F)F)cc34)C2=O)[C@H](NC(=O)c2cc(OCCOCCOCCOCCOCCNC(=O)[C@H]3CC(=O)N(C)[C@@H]3c3cccnc3)ccn2)C1 [Example 88, N-((1R,2S,5R)-5-(Isopropyl(methyl)amino)-2-((S)-2-oxo-3-((6-(trifluoromethyl)quinazolin-4-yl)amino)pyrrolidin-1-yl)cyclohexyl)-4-((1-((2S,3S)-1-methyl-5-oxo-2-(pyridin-3-yl)pyrrolidin-3-yl)-1-oxo-5,8,11,14-tetraoxa-2-azahexadecan-16-yl)oxy)picolinamide] | 2.51
18 | CC(C)N(C)[C@@H]1CC[C@H](N2CC[C@H](Nc3ncnc4ccc(C(F)(F)F)cc34)C2=O)[C@H](NC(=O)c2cc(OCCOCCOCCOCCNC(=O)[C@H]3CC(=O)N(C)[C@@H]3c3cccnc3)ccn2)C1 [Example 89] | 6.31
19 | CC(C)N(C)[C@@H]1CC[C@H](N2CC[C@H](Nc3ncnc4ccc(C(F)(F)F)cc34)C2=O)[C@H](NC(=O)C2CCN(C3CCN(CCOCCOCCNC(=O)[C@H]4CC(=O)N(C)[C@@H]4c4cccnc4)CC3)CC2)C1 [Example 90, N-((1R,2S,5R)-5-(Isopropyl(methyl)amino)-2-((S)-2-oxo-3-((6-(trifluoromethyl)quinazolin-4-yl)amino)pyrrolidin-1-yl)cyclohexyl)-1′-(2-(2-(2-((2S,3S)-1-methyl-5-oxo-2-(pyridin-3-yl)pyrrolidine-3-carboxamido)ethoxy)ethoxy)ethyl)-[1,4′-bipiperidine]-4-carboxamide] | 2
20 | CC(C)N(C)[C@@H]1CC[C@H](N2CC[C@H](Nc3ncnc4ccc(C(F)(F)F)cc34)C2=O)[C@H](NC(=O)c2ccc(OC3CCN(CCOCCOCCNC(=O)[C@H]4CC(=O)N(C)[C@@H]4c4cccnc4)CC3)cc2)C1 [Example 91] | 2
21 | CC(C)N(C)[C@@H]1CC[C@H](N2CC[C@H](Nc3ncnc4ccc(C(F)(F)F)cc34)C2=O)[C@H](NC(=O)c2cnn(C3CCN(CCOCCOCCNC(=O)[C@H]4CC(=O)N(C)[C@@H]4c4cccnc4)CC3)c2)C1 [Example 92, N-((1R,2S,5R)-5-(Isopropyl(methyl)amino)-2-((S)-2-oxo-3-((6-(trifluoromethyl)quinazolin-4-yl)amino)pyrrolidin-1-yl)cyclohexyl)-1-(1-(2-(2-(2-((2S,3S)-1-methyl-5-oxo-2-(pyridin-3-yl)pyrrolidine-3-carboxamido)ethoxy)ethoxy)ethyl)piperidin-4-yl)-1H-pyrazole-4-carboxamide] | 6.31
22 | CC(C)N(C)[C@@H]1CC[C@H](N2CC[C@H](Nc3ncnc4ccc(C(F)(F)F)cc34)C2=O)[C@H](NC(=O)C2CCC3(CC2)CCN(CCOCCOCCNC(=O)[C@H]2CC(=O)N(C)[C@@H]2c2cccnc2)CC3)C1 [Example 93] | 3.98
23 | CC(C)N(C)[C@@H]1CC[C@H](N2CC[C@H](Nc3ncnc4ccc(C(F)(F)F)cc34)C2=O)[C@H](NC(=O)[C@H]2CC[C@@H](NC(=O)C3CCC4(CC3)CCN(C(=O)[C@H]3CC(=O)N(C)[C@@H]3c3cccnc3)CC4)CC2)C1 [Example 95, N-((1 S,4R)-4-(((1R,2S,5R)-5-(Isopropyl(methyl)amino)-2-((S)-2-oxo-3-((6-(trifluoromethyl)quinazolin-4-yl)amino)pyrrolidin-1-yl)cyclohexyl)carbamoyl)cyclohexyl)-3-((2S,3S)-1-methyl-5-oxo-2-(pyridin-3-yl)pyrrolidine-3-carbonyl)-3-azaspiro[5.5]undecane-9-carboxamide] | 6.31
